In patent publication US12090179B2, “Methods of synergistic treatment of cancer” (priority 2016, dated 2024):

Columns and labels:
[1] = Percent weight change as measure of toxicity in BALB-neuT mice; format: in vivo
Procedure: Female BALB-neu-T mice spontaneously developed palpable mammary fat pad tumors around 16 weeks of age (approximately 50-60 mm^3). At this time (day 0), the mice typically had 1-3 palpable tumors. For each experiment, individual tumors were measured by caliper, and their volume was calculated. Individual tumor volumes were calculated as spheroid (L×W^2×0.52) and combined to give a total tumor burden measurement for each mouse. Tumor burden data was gathered weekly from day 0 to day 35. Additionally, percent weight change data was gathered weekly for each mouse from day 0 to day 35. The percent weight change was calculated based on the baseline weight of each mouse.
Various embodiments of method 200, described above with respect to FIG. 2, were used to treat tumors in the BALB-neuT model using combinations of attenuated S. typhimurium and the chemotherapy agent doxorubicin. A prescribed amount per cfu of the appropriate S. typhimurium strain (SalpIL2 or SalpNG.1) was administered via intravenous injection or gavage orally in 100 μL of PBS. The doxorubicin was administered intravenously via tail vein. Additionally, using the same methods of administration, a number of control groups received PBS alone, doxorubicin alone, SalpIL2 alone, or SalpNG.1 alone.
FIG. 6 is a line graph of percent weight change versus days post-treatment in mice treated with combinations of attenuated S. typhimurium and doxorubicin compared to control groups. Weight change in mice is an accurate measure of the degree of toxicity of a chemotherapy agent. […] While the control group that received PBS (301) saw a greater than 25% increase in weight by day 30, the mice in that group died or were moribund and euthanized due to tumor growth.

mammary fat pad tumors = format: in vivo, BALB-neuT mice
Excerpt: The BALB-neuT model is a genetically engineered mouse model in which mammary tumor development is driven by expression of a constitutively activated rat homolog of human epidermal growth factor receptor 2. In this model, autochthonous tumors develop over several months and are palpable in the mammary pads of female mice around 16 weeks of age. The tumors closely resemble the aggressive Her2-driven cancer found in human patients.
BALB-neuT mice were maintained in specific pathogen free conditions and fed standard mouse chow (Harlan). Animals were cared for by the University of Minnesota's Research Animal Resources, and all animal use was approved by the University's Institutional Animal Care and Use Facility. Genotyping for the neu transgene was performed by Transnetyx on male and female pups. Breeding pairs consisted of heterozygous males and homozygous negative females. Female mice that were positive for the neu transgene were monitored for tumor development.
Three control groups received doxorubicin alone. The first control group (302) received the maximum tolerated dose (MTD) of intravenous (IV) 5 mg/kg doxorubicin on days 0, 7, and 14. The second control group (303) received IV 2.5 mg/kg (50% reduction in MTD) doxorubicin on days 0, 7 and 14.
One control group (305) of mice received SalpIL2 alone. […] Another control group (306) received Salp NG.1 alone.
For combination therapy treatment with SalpIL2, one group of mice (307) received an oral dose of 1×10^9 cfu SalpIL2 as well as IV 1.25 mg/kg doxorubicin on day 0. Two additional doses of IV 1.25 mg/kg doxorubicin were administered on days 7 and 14. For combination therapy treatment with SalpNG.1, a first group of mice (308) received an IV dose of 2×10^6 cfu SalpNG.1 as well as IV 1.25 mg/kg doxorubicin on day 0. Two additional doses of IV 1.25 mg/kg doxorubicin were administered on days 7 and 14. A second group of mice (309) received an IV dose of 2×10^6 cfu SalpNG.1 as well as IV 2.5 mg/kg doxorubicin on day 0. Two additional doses of IV 2.5 mg/kg doxorubicin were administered on days 7 and 14.

[2] = doxorubicin alone IV 1.25 mg/kg on days 0, 7, 14, group 304
[3] = doxorubicin alone IV 5 mg/kg (MTD) on days 0, 7, 14, group 302
[4] = doxorubicin alone IV 1.25 mg/kg (25% of MTD) on days 0, 7, 14, group 304

## COc1cccc2c1C(=O)c1c(O)c3c(c(O)c1C2=O)C[C@@](O)(C(=O)CO)C[C@@H]3O[C@H]1C[C@H](N)[C@H](O)[C@H](C)O1 [doxorubicin]
[1]; [2]
  toxicity judged from weight change: non-toxic
  weight change by day 14: did not show any weight loss
  weight gain by day 35: < 10%
[1]; [3]
  toxicity judged from weight change: significant toxicity
  weight loss by day 14: greater than 20%
  weight loss by day 35: ~10%
Mammary fat pad tumors; [4]
  tumor burden relative to the MTD doxorubicin group (302) by day 21: almost double
  tumor burden relative to the MTD doxorubicin group (302) by day 35: ~5 times
Mammary fat pad tumors; doxorubicin alone IV 2.5 mg/kg (50% of MTD) on days 0, 7, 14, group 303
  tumor burden compared with groups 302 (MTD) and 304 (1.25 mg/kg): in between
Mammary fat pad tumors; [3]
  tumor burden at day 35: around 100 mm^3
  tumor burden compared with the other groups: lowest
